From patent publication US20260199287A1, “LIPO-HYDROXAMIC ACID DERIVATIVE AND PHARMACEUTICAL USE THEREOF” (MediciBIO Co., Ltd, priority 2022, published 2026) come the findings set out here.

Each structure is given as a SMILES string.

In test [1] the test system is human corneal endothelial cells. The test is described as follows: In vitro antioxidant activity, ROS-Glo H2O2 assay in corneal dystrophy-like environment. The test is classed as cell-based. Conditions: compared to control group (corneal dystrophy-mimicking: UV 5 J/cm^2 + TGF-β1 10 ng/ml); sample 4 h before induction. How it is done:
PriNeu I medium, which is a serum-free medium, was supplemented with 10% fetal bovine serum, human epidermal growth factor (EGF), human vascular endothelial growth factor (VEGF), human insulin, human transferrin, sodium selenite, hydrocortisone, heparin, R estradiol, L-glutamine, penicillin/streptomycin, and G418 (geneticin). Human corneal endothelial cells (purchased from Creative Biolabs (NY, USA)) were seeded onto culture dishes coated with FNC Coating Mix (Athena Environmental Science, MD, USA) and incubated at 37° C. in a humidified 5% CO2 atmosphere.
To establish an intracellular environment similar to that of cells affected by corneal dystrophy (hereinafter referred to as “corneal dystrophy-like environment”), cellular signaling pathways involving reactive oxygen species (ROS) and transforming growth factor-beta (TGF-β), both known to be associated with corneal dystrophy, were activated. Human corneal endothelial cells were first cultured in standard medium for 24 hours, after which the medium was replaced with serum-free PriNeu I medium. The cells were then irradiated at an intensity of 5 J/cm^2 using a UV irradiation (BLX-Link, Vilber, France). Subsequently, the cells were treated with recombinant human TGF-β1 protein at a concentration of 10 ng/ml (Bon Opus, NJ, USA).
To determine the effect of the above-prepared lipo-hydroxamic acid derivatives on oxidative stress activity in corneal endothelial cells, human corneal endothelial cells were cultured at 1.5×10^4 cells per well in a 96-well plate coated with FNC Coating Mix for 18 to 24 hours. Subsequently, the cells were treated with the test samples (Samples 1, 3, and 5). […] The oxidative stress activity was determined by measuring the level of hydrogen peroxide (hereinafter referred to as “H2O2”) in the cell culture medium using the ROS-Glo™ H2O2 Assay (Promega, WI, USA) according to the manufacturer's instructions. The luminescence intensity was measured using the GloMax® Discover microplate reader (Promega) at an excitation wavelength of 485 nm and an emission wavelength of 520-530 nm.

The subject of a further test is collagen I. Kind of test: Real-time PCR, collagen I mRNA. The test is classed as cell-based, human. Conditions: corneal dystrophy-like environment. The procedure:
(§1) To identify the antioxidant mechanism of the lipo-hydroxamic acid derivative prepared above, real-time PCR was performed to detect the mRNA expression levels of the antioxidant enzymes downstream of Nrf2. First, human corneal endothelial cells were cultured at 3×10^5 cells per well in a 6-well plate coated with FNC Coating Mix for 18 to 24 hours, and the samples were treated. Four hours after the sample treatment, the corneal dystrophy-like environment was induced using the same method as described in Example 3-2. Twenty-four hours after inducing the corneal dystrophy-like environment, RNA was isolated from the cells using an RNA extraction kit (Bioneer, Daejeon), and cDNA was synthesized from […] of RNA using RT PreMix (Bioneer). Subsequently, real-time PCR was performed using GoTaq mater mix (Promega) containing SYBR green solution at 95° C. for 2 minutes, followed by 35 cycles at 95° C. for 15 seconds and at 60° C. for 1 minute.
To identify the effect of the lipo-hydroxamic acid derivative prepared above on the expression of fibrosis- and cellular degeneration-related factors in corneal endothelial cells, real-time PCR was performed to detect mRNA expression levels of the fibrosis marker N-cadherin, and the cellular degeneration markers collagen I and fibronectin. The real-time PCR was performed in the same manner as in Example 5-2 above.

A further test relates to ABCB6. The test is described as follows: Real-time PCR, ABCB6 mRNA. The test is classed as cell-based, human. Conditions: corneal dystrophy-like environment. How it is done:
as §1

In test [2] the test system is nuclear factor erythroid-2-related factor 2 (Nrf2). Kind of test: Western blot of Nrf2 protein expression. Conditions: compared to the control; corneal dystrophy-like environment. The test is classed as cell-based, human. How it is done: To identify a mechanism of antioxidant activity of the lipo-hydroxamic acid derivative prepared above, Western blot was performed to detect protein expression of nuclear factor erythroid-2-related factor 2 (Nrf2; NCBI Gene ID: 4780) which is an antioxidant transcription factor. First, human corneal endothelial cells were cultured at 3×10^5 cells per well in a 6-well plate coated with FNC Coating Mix for 18 to 24 hours, and the samples were treated. Four hours after the sample treatment, the corneal dystrophy-like environment was induced in accordance with the method described in Example 3-2. Twenty-four hours after induction of the corneal dystrophy-like environment, the cells were washed with phosphate-buffered saline (PBS) and lysed using RIPA lysis buffer (GenDEPOT) containing protease inhibitor cocktail tablets (GenDEPOT, TX, USA). The cell lysates were centrifuged at 13,000 rpm at 4° C. for 10 minutes to obtain the supernatant. Protein concentration in the supernatant was determined using a BCA kit (Thermo Fisher Scientific, MA, USA). Equal amounts of protein were mixed with 5x SDS sample buffer and boiled for 5 minutes, followed by gel electrophoresis. The separated proteins were transferred to a nitrocellulose membrane (GenDEPOT), and nonspecific antibody binding was blocked by incubating the membrane in 5% skim milk at room temperature for 1 hour. […]

A further test relates to peroxiredoxin 1 (Prdx1). The test is described as follows: Real-time PCR, Prdx1 mRNA. To be noted: corneal dystrophy-like environment. The test is classed as cell-based, human. How it is done:
as §1

Another test relates to HO-1. Kind of test: Real-time PCR, HO-1 mRNA. To be noted: corneal dystrophy-like environment. The test is classed as cell-based, human. How it is done: as §1
The test system of the next test is NQO-1. Kind of test: Real-time PCR, NQO-1 mRNA. The test is classed as cell-based, human. Conditions: corneal dystrophy-like environment. The procedure:
as §1

On to `O=C(CCCCC1CCSS1)NOCCO` (stereo not shown) [Sample 1, 5-[1,2]dithiolan-3-yl-pentanoic acid (2-hydroxy-ethoxy)-amide], for which the “oxidative stress (H2O2 level in cell culture medium)” value in test [1] is recorded as “significantly decreased”. Also, in the test with collagen I, the “mRNA expression of collagen I” value is given as “significantly decreased in a concentration-dependent manner”. Moreover, in the test on ABCB6, the “mRNA expression of ABCB6” value is listed as “significantly increased”. Moreover, the Nrf2 protein expression entry in test [2] is reported as “significantly increased”. For the same compound, the “mRNA expression of peroxiredoxin 1 (Prdx1)” value in the test with peroxiredoxin 1 (Prdx1) is reported as “significantly increased”. Moreover, the “mRNA expression of HO-1” value in the test on HO-1 is “significantly increased”. Also, the “mRNA expression of NQO-1” value in the test with NQO-1 is “significantly increased”.
